US20080004282A1, “Compositions and methods for modulating gated ion channels” (PainCeptor Pharma Corporation, priority 2006, published 2008)

Tested on: thermal hyperalgesia from carrageenan-induced acute paw inflammation
Assay: Carrageenan model, thermal hyperalgesia (Hargreaves' assay)
Type: in vivo
Settings: rat, 20 mg/kg s.c. 30 min prior to carrageenan, 2-3 hours post-carrageenan
Method: Carrageenan Model for Pain
Acute inflammatory hyperalgesia is induced in rats by unilateral injection of […] of a 3% solution of 1-carrageenan into the plantar surface of the left hind paw 2-4 h prior to testing. Thermal nociceptive thresholds are determined according to the method described elsewhere (Hargreaves et al., 1988). Briefly, through the glass surface, a radiant heat source (8 V, 50 W projector bulb) is focused onto the plantar surface of the hind paw. The rat's paw-withdrawal latency to this stimulus is recorded to the nearest 0.1 s. Each latency score is an average of three trials, which are separated by at least 5 min. In all rats, both the injured and uninjured hind paws are similarly tested, allowing direct comparisons between inflamed and non-inflamed paws.
FIG. 7 illustrates the effect of Compound 44 (20 mg/kg s.c.) on the thermal hyperalgesia (observed in the Hargreaves' assay) resulting from an acute paw inflammation caused by the intraplantar injection of 150 μl of a 3% solution of λ-carrageenan. Compound 44 was given 30 min prior to carrageenan injection and thermal hyperalgesia was tested 2, 3, and 4 h post carrageenan injection.

CCN1CCc2c(-c3cc(Cl)ccc3OC)cc(C#N)c(N)c2C1 [Compound 44]
effect on thermal hyperalgesia: completely reversed
